Patent US20240228482A1, “COMPOUNDS, COMPOSITIONS AND METHODS OF TREATING CANCER” (HOTSPOT THERAPEUTICS, INC., priority 2021, published 2024)

What follows are molecules tested against T1, CBL-B (Homo sapiens, UniProt Q13191) (assay: CBL-B TR-FRET IC50 screening (E1/E2 ubiquitination, Biotin-Ubiquitin, Anti GST-Tb donor / Streptavidin-d2 acceptor)). Conditions: CBL-B 10 nM final; 11-point titration from 100 uM; binned A-F; read-out: CBL-B TR-FRET activity IC50.
T1 construct: GST
Assay type: biochemical

T1 sequence (Q13191 whole entry): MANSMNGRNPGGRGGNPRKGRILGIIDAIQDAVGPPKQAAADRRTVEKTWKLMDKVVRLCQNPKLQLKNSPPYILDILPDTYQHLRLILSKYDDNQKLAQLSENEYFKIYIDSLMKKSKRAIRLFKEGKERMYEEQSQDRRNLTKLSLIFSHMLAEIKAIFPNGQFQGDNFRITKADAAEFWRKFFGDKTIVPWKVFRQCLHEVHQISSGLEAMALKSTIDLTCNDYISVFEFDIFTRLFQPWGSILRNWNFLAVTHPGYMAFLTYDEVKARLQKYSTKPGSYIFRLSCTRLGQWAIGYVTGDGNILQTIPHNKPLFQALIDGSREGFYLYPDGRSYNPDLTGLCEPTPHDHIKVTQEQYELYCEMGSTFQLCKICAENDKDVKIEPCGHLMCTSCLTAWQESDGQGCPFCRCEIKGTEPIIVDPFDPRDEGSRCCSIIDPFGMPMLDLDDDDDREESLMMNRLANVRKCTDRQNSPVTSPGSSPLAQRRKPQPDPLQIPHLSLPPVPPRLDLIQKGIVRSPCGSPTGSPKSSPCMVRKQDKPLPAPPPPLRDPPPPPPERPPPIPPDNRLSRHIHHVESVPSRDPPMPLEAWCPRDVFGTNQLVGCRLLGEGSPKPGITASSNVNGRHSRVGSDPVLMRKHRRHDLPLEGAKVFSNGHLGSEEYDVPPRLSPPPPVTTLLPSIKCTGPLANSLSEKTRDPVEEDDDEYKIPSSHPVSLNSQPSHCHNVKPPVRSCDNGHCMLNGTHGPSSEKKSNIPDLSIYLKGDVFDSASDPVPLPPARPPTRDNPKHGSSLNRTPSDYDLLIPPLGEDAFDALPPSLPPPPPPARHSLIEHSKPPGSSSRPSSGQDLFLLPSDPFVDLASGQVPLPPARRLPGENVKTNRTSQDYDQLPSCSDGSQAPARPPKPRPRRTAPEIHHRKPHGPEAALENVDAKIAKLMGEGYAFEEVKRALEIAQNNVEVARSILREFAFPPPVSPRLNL

Compound	IC50
Cn1cnnc1[C@]1(c2cccc(-n3cc4c(C(F)(F)F)cc(CN5CCC(C)(F)CC5)cn4c3=O)c2)C[C@@H](C)C1 (single isomer, unassigned) [Compound 217]	< 0.1 µM
COCCn1cc(C)c([C@H](c2cccc(-n3cc4c(C(F)(F)F)cc(CN5CCC[C@H](C)C5)cn4c3=O)c2)C2CCC2)n1 (single isomer, unassigned) [Compound 336]	> 10 µM
Cn1cnnc1[C@@H](c1cccc(-n2cc3c(C(F)(F)F)cc(CN4CCn5cnnc5C4)cn3c2=O)c1)C1CCC1 [Compound 316]	< 0.1 µM
[2H]C([2H])([2H])n1cnnc1CC1(c2cccc(-n3cc4c(C(F)(F)F)cc([C@@H](C)N5CCO[C@H](C)C5)cn4c3=O)c2)COC1 [Compound 287_P2]	< 0.1 µM
[2H]C([2H])([2H])n1cnnc1CC1(c2cccc(-n3cc4c(C(F)(F)F)cc(CN5CCO[C@H](C)C5)cn4c3=O)c2)COC1 [Compound 199]	< 0.1 µM
CN(Cc1cc(C(F)(F)F)c2cn(-c3cccc([C@H](c4nncn4C)C4CCC4)c3)c(=O)n2c1)CC1COC1 [Compound 347]	< 0.1 µM
Cn1cnnc1CC1(c2cccc(-n3cc4c(C(F)(F)F)cc(CN5CC6(CCO6)C5)cn4c3=O)c2)COC1 [Compound 131]	< 0.1 µM
Cc1cc(-n2cc3c(C(F)(F)F)cc(CN4CCC[C@H](C)C4)cn3c2=O)cc(C2(Cc3nncn3C)COC2)c1 [Compound 239]	< 0.1 µM
Cn1cnnc1[C@@H](c1cccc(-n2cc3c(C(F)(F)F)cc(CN4CCn5ncnc5C4)cn3c2=O)c1)C1CCC1 [Compound 317]	< 0.1 µM
COC1CCN(Cc2cc(C(F)(F)F)c3cn(-c4cccc([C@H](c5nncn5C)C5CCC5)c4)c(=O)n3c2)CC1 [Compound 225]	< 0.1 µM
Cn1cnnc1[C@@H](c1cccc(-n2cc3c(C(F)(F)F)cc(CN4CCC5(CC5)C4)cn3c2=O)c1)C1CCC1 (single isomer, unassigned) [Compound 163]	< 0.1 µM
Cn1cnnc1CC1(c2cccc(-n3cc4c(C(F)(F)F)cc(C5(O)CCNCC5)cn4c3=O)c2)COC1 [Compound 179]	0.1 to 0.3 µM
CC(=O)NCc1cc(C(F)(F)F)c2cn(-c3cccc(C4(Cc5nncn5C)COC4)c3)c(=O)n2c1 [Compound 139]	0.1 to 0.3 µM
C[C@@H]1CCN(Cc2cc(C(F)(F)F)c3cn(-c4cccc([C@H](c5nncn5C)C5CCC5)c4)c(=O)n3c2)C1 [Compound 248]	< 0.1 µM
C[C@H]1CCCN(Cc2cc(C(F)(F)F)c3cn(-c4cccc([C@@H](c5nncn5C)[C@H]5C[C@@H](CO)C5)c4)c(=O)n3c2)C1 (single isomer, unassigned) [Compound 353]	> 10 µM
Cn1cnnc1[C@]1(c2cccc(-n3cc4c(C(F)(F)F)cc(CN5CCC(F)CC5)cn4c3=O)c2)C[C@@H](C)C1 [Compound 229]	< 0.1 µM
Cn1cnnc1CC1(c2cccc(-n3cc4c(C(F)(F)F)cc(CN5CCCC(O)C5)cn4c3=O)c2)COC1 (centres unmarked) [Compound 206]	0.301 to 1 µM
Cn1cnnc1COc1cccc(-n2cc3c(C(F)(F)F)cc(Br)cn3c2=O)c1 [Compound 181]	> 10 µM
CN(Cc1nncn1C)c1cccc(-n2cc3c(C(F)(F)F)cc(Br)cn3c2=O)c1 [Compound 132]	> 10 µM
Cc1c[nH]nc1[C@H](c1cccc(-n2cc3c(C(F)(F)F)cc(CN4CCC[C@H](C)C4)cn3c2=O)c1)C1COC1 [Compound 280]	> 10 µM
C[C@@H]1CN(Cc2cc(C(F)(F)F)c3cn(-c4cccc([C@H](c5nncn5C)C5CCC5)c4)c(=O)n3c2)CCO1 [Compound 244]	< 0.1 µM
C[C@H]1CCCN(C(=O)c2cc(C(F)(F)F)c3cn(-c4cccc([C@H](c5nncn5C)C5CCC5)c4)c(=O)n3c2)C1 [Compound 379]	< 0.1 µM
C[C@H]1CCCN(Cc2cc(C(F)(F)F)c3cn(-c4cccc([C@H](c5nncn5C)[C@H]5C[C@H](CO)C5)c4)c(=O)n3c2)C1 (single isomer, unassigned) [Compound 354]	0.301 to 1 µM
CC(=O)N1CCN(Cc2cc(C(F)(F)F)c3cn(-c4cccc([C@H](c5nncn5C)C5CCC5)c4)c(=O)n3c2)CC1 [Compound 339_P2]	1 to 3 µM

Same assay, conditions: second part of Table 2 (head 'Patent Cmpd No / Updated Activity'); same CBL-B TR-FRET IC50 bins A-F; read-out: Updated Activity

Compound	IC50
CO[C@]1(C)C[C@](c2cccc(-n3cc4c(C(F)(F)F)cc(CN5CCC[C@H](C)C5)cn4c3=O)c2)(c2nncn2C)C1 (single isomer, unassigned) [Compound 439]	0.1 to 0.3 µM
Cc1cnoc1[C@H](c1cccc(-n2cc3c(C(F)(F)F)cc(CN4CCC[C@H](C)C4)cn3c2=O)c1)C1CCC1 (single isomer, unassigned) [Compound 383]	> 10 µM
COCCn1ccnc1-c1cc(C(F)(F)F)c2cn(-c3cccc(C4(c5nncn5C)CCC4)c3)c(=O)n2c1 [Compound 611]	0.1 to 0.3 µM
COCc1nc([C@H](c2cccc(-n3cc4c(C(F)(F)F)cc(CN5CCC[C@H](C)C5)cn4c3=O)c2)C2CCC2)c(C)s1 (single isomer, unassigned) [Compound 386]	> 10 µM
Cn1cnnc1[C@@H](c1cc(F)cc(-n2cc3c(C(F)(F)F)cc(CN4CC(F)(F)C4)cn3c2=O)c1)C1CCC1 (single isomer, unassigned) [Compound 620]	0.1 to 0.3 µM
C[C@H]1CCCN(Cc2cc(C(F)(F)F)c3cn(-c4cccc([C@H](c5nncn5C)[C@H]5C[C@@](C)(O)C5)c4)c(=O)n3c2)C1 (single isomer, unassigned) [Compound 574]	> 10 µM
COCC(COC)[C@H](c1cccc(-n2cc3c(C(F)(F)F)cc(CN4CCC[C@H](C)C4)cn3c2=O)c1)c1nncn1C (single isomer, unassigned) [Compound 410]	> 10 µM
Cn1cnnc1[C@@H](c1cccc(-n2cc3c(C(F)(F)F)cc(CN4CCOC4=O)cn3c2=O)c1)C1CCC1 [Compound 468]	< 0.1 µM
Cc1cnoc1[C@@H](c1cccc(-n2cc3c(C(F)(F)F)cc(CN4CCC[C@H](C)C4)cn3c2=O)c1)C1CCC1 (single isomer, unassigned) [Compound 384]	> 10 µM
CN(CCC(=O)O)Cc1cc(C(F)(F)F)c2cn(-c3cccc([C@H](c4nncn4C)C4CCC4)c3)c(=O)n2c1 [Compound 595]	< 0.1 µM
CO[C@]1(C)C[C@H]([C@@H](c2cccc(-n3cc4c(C(F)(F)F)cc(CN5CCC[C@H](C)C5)cn4c3=O)c2)c2nncn2C)C1 (single isomer, unassigned) [Compound 530]	> 10 µM
C[C@@H]1CN(Cc2cc(C(F)(F)F)c3cn(-c4cc(F)cc([C@H](c5nncn5C)C5CCC5)c4)c(=O)n3c2)CCO1 (single isomer, unassigned) [Compound 511]	> 10 µM
C[C@H]1CCCN(Cc2cc(C(F)(F)F)c3cn(-c4cccc([C@@H](c5nncn5C)C5CN(C)C5)c4)c(=O)n3c2)C1 [Compound 470_P2]	> 10 µM
Cn1cnnc1CC1(c2cccc(-n3cc4c(C(F)(F)F)cc(CN5CCC(OCCN)CC5)cn4c3=O)c2)COC1 [Compound 499]	< 0.1 µM
Cn1cnnc1[C@@H](c1cc(C#N)cc(-n2cc3c(C(F)(F)F)cccn3c2=O)c1)C1CCC1 (single isomer, unassigned) [Compound 453]	0.301 to 1 µM
C[C@H](c1cc(C(F)(F)F)c2cn(-c3cccc([C@H](c4nncn4C)C4CCC4)c3)c(=O)n2c1)N1CCC[C@H](C(F)(F)F)C1 (single isomer, unassigned) [Compound 580]	3 to 10 µM
[2H]C([2H])(c1cc(C(F)(F)F)c2cn(-c3cccc([C@H](c4nncn4C)C4CCC4)c3)c(=O)n2c1)N1CCC(C)(F)CC1 [Compound 526]	< 0.1 µM
